Experimental data from ChEMBL document CHEMBL1781936, “Structure-based design of potent aromatase inhibitors by high-throughput docking” (J Med Chem, 2011).
pIC50: −log10 of the molar value.

Molecular target: T1, Aromatase (Homo sapiens, UniProt P11511)
T1 sequence (P11511 whole entry): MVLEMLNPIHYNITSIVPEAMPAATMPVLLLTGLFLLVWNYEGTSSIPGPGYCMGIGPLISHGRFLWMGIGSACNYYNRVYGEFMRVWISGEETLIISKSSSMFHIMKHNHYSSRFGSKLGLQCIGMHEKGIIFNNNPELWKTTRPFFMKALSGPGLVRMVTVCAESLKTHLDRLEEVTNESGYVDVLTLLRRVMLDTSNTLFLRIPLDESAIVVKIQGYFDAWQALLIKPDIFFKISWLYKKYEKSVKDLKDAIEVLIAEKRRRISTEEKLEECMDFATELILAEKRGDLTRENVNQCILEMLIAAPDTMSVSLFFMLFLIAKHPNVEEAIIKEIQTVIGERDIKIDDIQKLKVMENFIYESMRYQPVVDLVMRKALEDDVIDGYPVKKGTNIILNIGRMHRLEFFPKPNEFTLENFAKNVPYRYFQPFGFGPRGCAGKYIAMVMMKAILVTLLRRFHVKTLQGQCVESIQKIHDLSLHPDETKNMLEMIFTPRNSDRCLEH
Assay: Inhibition of human recombinant aromatase using 7-methoxy-4-trifluoromethyl coumarin as substrate by fluorimetric analysis; call rule not given here

pIC50	SMILES
6.92	O=S(=O)(NCCCn1ccnc1)c1ccc2c(c1)OCCO2
6.12	CCOc1ccc(S(=O)(=O)NCCCn2ccnc2)c2ccccc12
7.00	COc1ccc(S(=O)(=O)NCCCn2ccnc2)cc1F
6.00	Cc1ccc(C(=O)NCCCn2ccnc2)cc1[N+](=O)[O-]
7.21	COc1ccc(S(=O)(=O)NCCCn2ccnc2)cc1C
8.03	COc1ccc(S(=O)(=O)N2CCCC(Cn3ccnc3)C2)cc1C(C)(C)C (racemic)
6.76	Cc1cc(C)c(S(=O)(=O)NCCCn2ccnc2)cc1C
6.36	COc1ccc(S(=O)(=O)NCCCn2ccnc2)cc1C(C)(C)C
7.20	COc1cc(Cl)c(S(=O)(=O)NCCCn2ccnc2)cc1Cl
6.30	CC1(C)Oc2ccc(S(=O)(=O)NCCCn3ccnc3)cc2NC1=O

Further lines, the compound ahead of its results:

SMILES	pIC50
O=C(Cn1ccnc1)Nc1ccccc1Oc1ccc(F)cc1	6.61
COc1cc2c(cc1-c1cncn1CCCn1ccnc1C)OCCCO2	6.30
COc1cc(CC(=O)N2CCOC(Cn3ccnc3)C2)cc(OC)c1OC (racemic)	7.23
O=C(Cn1cncn1)NC(CCc1ccccc1)c1ccc2c(c1)OCCO2 (racemic)	6.00
O=C(C(=Cc1ccccc1)n1cncn1)c1ccc(Cl)cc1Cl (mixture of isomers)	6.36
COc1ccc(S(=O)(=O)N2CCOC(Cn3ccnc3)C2)cc1 (racemic)	7.10
Cc1ncc(CNc2ccc(OCC(O)Cn3ccnc3)cc2)cn1 (racemic)	5.46
CC(C)(C(=O)Nc1ccccc1Oc1ccc(F)cc1)n1cncn1	4.88
COc1ccc(C(C)NC(=O)c2ccccc2Cn2cncn2)cc1F (racemic)	5.51
O=C(CCn1ccnc1)NC[C@H]1CC[C@H](c2ncncc2-c2ccccn2)CC1	5.51
CCc1[nH]c2ccc(C(=O)NCC(C)n3cncn3)cc2c1C (racemic)	4.97
CC(CNC(=O)c1cc2c([nH]c1=O)CCCCC2)n1cncn1 (racemic)	< 4.60
O=C(Cc1ccc(F)cc1)N1CCOC(Cn2ccnc2)C1 (racemic)	7.46
C=CCN(c1ccc(C(=O)NCCCn2ccnc2)cc1)S(C)(=O)=O	5.60
COc1ccc(C(=O)OC(COc2ccccc2)Cn2ccnc2)cc1 (racemic)	7.78
O=C(Cc1ccc2c(c1)OCO2)N1CCOC(Cn2ccnc2)C1 (racemic)	7.33
CC(=O)c1ccc(S(=O)(=O)N2CCOC(Cn3ccnc3)C2)cc1 (racemic)	7.18
Cc1ccc(C(=O)NCCCn2ccnc2)cn1	4.97
O=c1oc2cc(OCC(O)Cn3cncn3)ccc2c2c1CCC2 (racemic)	4.66
COc1ccc2c(c1)OC1(CCN(C(=O)Cn3cncn3)CC1)CC2=O	5.24

Molecular target: T1, Aromatase
Assay: Inhibition of human recombinant aromatase using 7-methoxy-4-trifluoromethyl coumarin as substrate at 25 uM by fluorimetric analysis

inhibition (INH)	SMILES
Not Active	CC(C)(C)C(Cn1ccnc1)NC(=O)c1cc(N2CCOCC2)nc2ccccc12 (racemic)

System: not listed separately
Assay: Solubility of the compound
Format: physicochemical

solubility	SMILES
Insoluble	COc1cc2sc(NC(=O)c3ccccc3Cn3cncn3)nc2cc1Cl
